The text below walks through data of PMC5029806, “Streptococcus pneumoniae TIGR4 Flavodoxin: Structural and Biophysical Characterization of a Novel Drug Target” (PLoS ONE, 2016).

The structures appear in SMILES notation.

The target of the experiment is T1, Streptococcus pneumoniae TIGR4 flavodoxin (SpFld) (Streptococcus pneumoniae, UniProt A0A0H2UQC6).
T1 construct: gene fld; apo form for ITC, SeMet holo form for the crystal structure
Briefly: ITC at […]°C ([…] NaCl, […] MES, pH […]); crystal structure of the FMN complex; thermal stabilization by CD, fluorescence and DSC. The experiment is classed as binding.

T1 sequence (A0A0H2UQC6 entry or part of it): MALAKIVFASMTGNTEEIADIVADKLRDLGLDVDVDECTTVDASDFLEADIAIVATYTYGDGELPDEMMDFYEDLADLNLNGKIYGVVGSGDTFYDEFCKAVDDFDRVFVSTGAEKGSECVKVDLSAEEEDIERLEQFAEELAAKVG

The term Kd denotes a measure of binding affinity in units of concentration. `Cc1cc2nc3c(=O)[nH]c(=O)nc-3n(C[C@H](O)[C@H](O)[C@H](O)COP(=O)(O)O)c2cc1C` [FMN]: the Kd turned out to be 83 ± 9 nM.
